From the supplement of paper PMC11451515

Test system: NOMO1
Assay: cell viability relative to DMSO control; higher = less cytotoxic
Details: 48 h
Procedure, shortened: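 Viability values are per-plate percentages of DMSO wells, with background from cell-free wells. Library compounds in DMSO were pin-dosed, in an 11-point threefold series from 47 μM to 0.79 nM, onto NOMO1 or SEM (500 cells/well) or P12-Ichikawa (1000 cells/well) leukemia cells in 1536-well plates (5 μl). Those cells had been adapted for at least four passages in each medium, and CellTiter-Glo One luminescence was read after 48 h at 37°C.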

[1] = HPLM + 10% dialyzed FBS, 0.000781 µM
[2] = HPLM + 10% dialyzed FBS, 0.00234 µM
[3] = HPLM + 10% dialyzed FBS, 0.00702 µM
[4] = HPLM + 10% dialyzed FBS, 0.0211 µM
[5] = HPLM + 10% dialyzed FBS, 0.0632 µM
[6] = HPLM + 10% dialyzed FBS, 0.19 µM
[7] = HPLM + 10% dialyzed FBS, 0.569 µM
[8] = HPLM + 10% dialyzed FBS, 1.71 µM
[9] = HPLM + 10% dialyzed FBS, 5.12 µM
[10] = HPLM + 10% dialyzed FBS, 15.4 µM
[11] = HPLM + 10% dialyzed FBS, 46.1 µM
[12] = RPMI 5 mM glucose + 10% FBS, 0.000781 µM
[13] = RPMI 5 mM glucose + 10% FBS, 0.00234 µM
[14] = RPMI 5 mM glucose + 10% FBS, 0.00702 µM
[15] = RPMI 5 mM glucose + 10% FBS, 0.0211 µM
[16] = RPMI 5 mM glucose + 10% FBS, 0.0632 µM
[17] = RPMI 5 mM glucose + 10% FBS, 0.19 µM
[18] = RPMI 5 mM glucose + 10% FBS, 0.569 µM
[19] = RPMI 5 mM glucose + 10% FBS, 1.71 µM
[20] = RPMI 5 mM glucose + 10% FBS, 5.12 µM
[21] = RPMI 5 mM glucose + 10% FBS, 15.4 µM
[22] = RPMI 5 mM glucose + 10% FBS, 46.1 µM
[23] = RPMI 5 mM glucose + 10% dialyzed FBS, 0.000781 µM
[24] = RPMI 5 mM glucose + 10% dialyzed FBS, 0.00234 µM
[25] = RPMI 5 mM glucose + 10% dialyzed FBS, 0.00702 µM
[26] = RPMI 5 mM glucose + 10% dialyzed FBS, 0.0211 µM
[27] = RPMI 5 mM glucose + 10% dialyzed FBS, 0.0632 µM
[28] = RPMI 5 mM glucose + 10% dialyzed FBS, 0.19 µM
[29] = RPMI 5 mM glucose + 10% dialyzed FBS, 0.569 µM
[30] = RPMI 5 mM glucose + 10% dialyzed FBS, 1.71 µM
[31] = RPMI 5 mM glucose + 10% dialyzed FBS, 5.12 µM
[32] = RPMI 5 mM glucose + 10% dialyzed FBS, 15.4 µM
[33] = RPMI 5 mM glucose + 10% dialyzed FBS, 46.1 µM

Row | Structure (SMILES) | cell viability [1] [%] | cell viability [2] [%] | cell viability [3] [%] | cell viability [4] [%] | cell viability [5] [%] | cell viability [6] [%] | cell viability [7] [%] | cell viability [8] [%] | cell viability [9] [%] | cell viability [10] [%] | cell viability [11] [%] | cell viability [12] [%] | cell viability [13] [%] | cell viability [14] [%] | cell viability [15] [%] | cell viability [16] [%] | cell viability [17] [%] | cell viability [18] [%] | cell viability [19] [%] | cell viability [20] [%] | cell viability [21] [%] | cell viability [22] [%] | cell viability [23] [%] | cell viability [24] [%] | cell viability [25] [%] | cell viability [26] [%] | cell viability [27] [%] | cell viability [28] [%] | cell viability [29] [%] | cell viability [30] [%] | cell viability [31] [%] | cell viability [32] [%] | cell viability [33] [%]
1 | OC[C@H]1O[C@@H](Oc2cc(O)cc(/C=C/c3ccc(O)cc3)c2)[C@H](O)[C@@H](O)[C@@H]1O | 85.6 | 116 | 107 | 128 | 115 | 111 | 99.4 | 74.8 | 63.1 | 58.8 | 45 | 102 | 99.2 | 111 | 121 | 104 | 106 | 98.1 | 91.5 | 84.2 | 63.2 | 63.3 | 85.6 | 92.4 | 88.3 | 98.4 | 109 | 108 | 103 | 84.7 | 51.9 | 52.7 | 76.5
2 | NC(=O)Nc1cc(-c2cccc(F)c2)sc1C(=O)N[C@H]1CCCNC1 | 125 | 102 | 141 | 107 | 147 | 92.1 | 59.2 | 42 | 24.7 | 26.9 | 26.2 | – | – | – | – | – | – | – | – | – | – | – | 121 | 122 | 136 | 134 | 136 | 139 | 81.7 | 33.2 | 24.4 | 21.6 | 23.4
3 | COc1ncc(-c2ccc3c(Nc4cc(Oc5cc(F)cc(F)c5)cc(C(=O)O)c4)c([S+](=O)([O-])NC4CC4)cnc3c2)c(OC)n1 | 112 | 111 | 91.1 | 106 | 113 | 98 | 95.7 | 99.3 | 86.5 | 77.7 | 87.2 | 96.6 | 102 | 89.9 | 95.6 | 100 | 84.1 | 98.3 | 92.3 | 81.9 | 87.7 | 85.3 | 97.2 | 94.4 | 94 | 89 | 92 | 102 | 89.7 | 86.9 | 81.1 | 79.7 | 75.6
4 | CC(NCCc1ccc(O)cc1)C(O)c1ccc(O)cc1 (stereo not drawn) | 124 | 123 | 121 | 111 | 124 | 120 | 127 | 110 | 118 | 97.5 | 80 | 113 | 106 | 107 | 113 | 102 | 96.2 | 101 | 104 | 105 | 94.8 | 95 | 93.4 | 114 | 109 | 99.7 | 110 | 114 | 102 | 93.8 | 91.3 | 93.5 | 77.3
5 | OCCC#Cc1nc(-c2ccc(F)cc2)c(-c2ccncc2)n1CCCc1ccccc1 | – | – | – | – | – | – | – | – | – | – | – | 119 | 122 | 122 | 135 | 127 | 138 | 150 | 136 | 128 | 132 | 116 | – | – | – | – | – | – | – | – | – | – | –
6 | COc1cc(CNC(=O)CCCC/C=C/C(C)C)ccc1O | 111 | 116 | 113 | 123 | 114 | 112 | 71.5 | 77 | 79.1 | 60.9 | 47.2 | 101 | 99.6 | 95 | 115 | 104 | 114 | 90.6 | 45.9 | 36.6 | 41.1 | 36.4 | 102 | 97.8 | 103 | 98.5 | 106 | 101 | 99.5 | 55.3 | 52 | 50.4 | 59.7
7 | N#C/C(C(=O)c1ccc(Cl)cc1Cl)=C1/NC(=O)c2ccc(Cl)cc2N1 | 117 | 108 | 122 | 128 | 130 | 117 | 114 | 105 | 109 | 102 | 106 | 105 | 119 | 111 | 109 | 105 | 111 | 103 | 102 | 94.5 | 95.1 | 98.2 | 113 | 114 | 114 | 104 | 118 | 114 | 107 | 103 | 110 | 103 | 105
8 | CC1(C)C(N(O)C(=O)Nc2ccc(Cl)cc2)N(c2ccc(Cl)cc2)C(=O)N1CC(=O)N/N=C/C=C/c1ccc([N+](=O)[O-])o1 (stereo not drawn) | 121 | 118 | 125 | 124 | 124 | 115 | 123 | 116 | 108 | 95.8 | 50.2 | 116 | 111 | 109 | 120 | 110 | 104 | 102 | 110 | 97.4 | 104 | 75.1 | 106 | 107 | 103 | 124 | 122 | 121 | 111 | 111 | 108 | 117 | 71.3
9 | Cc1noc(-c2ccc(CSCCC(=O)O)cc2)c1NC(=O)OC(C)c1ccccc1Cl (stereo not drawn) | 92.3 | 89.9 | 105 | 104 | 99.8 | 97.1 | 95.6 | 97 | 113 | 111 | 95.7 | 85.7 | 97.5 | 99 | 89.6 | 109 | 95.4 | 102 | 100 | 95.5 | 110 | 105 | 79 | 99.1 | 87.3 | 86.3 | 99.1 | 92.2 | 99.5 | 95.8 | 100 | 104 | 107
10 | CCOC1=CC=CC=C1N\2C(=O)C3=C(C=CC=C3)\N=C2C(C)N4CCN(CC4)C(=O)COC5=CC=C(Cl)C=C5 (stereo not drawn) | – | – | – | – | – | – | – | – | – | – | – | 116 | 115 | 132 | 112 | 131 | 127 | 119 | 37.8 | 10.4 | 5.57 | 3.82 | – | – | – | – | – | – | – | – | – | – | –
11 | OC[C@H]1O[C@@H]2[C@@H](OC\3=N\C(=N)\C=C/[N@@]23)[C@@H]1O | 103 | 129 | 125 | 114 | 130 | 129 | 109 | 62.6 | 30.4 | 19.8 | 6.81 | 119 | 122 | 112 | 111 | 119 | 125 | 130 | 103 | 33.7 | 22 | 8.44 | 116 | 122 | 120 | 106 | 118 | 125 | 90.5 | 67.1 | 23.3 | 16.8 | 9.9
12 | c1ccc(-c2oc3ncnc(NC[C@@H]4CCCO4)c3c2-c2ccccc2)cc1 | 114 | 113 | 134 | 113 | 134 | 128 | 123 | 126 | 112 | 103 | 62 | 102 | 110 | 112 | 114 | 120 | 120 | 117 | 109 | 110 | 112 | 63.8 | – | – | – | – | – | – | – | – | – | – | –
13 | Cc1ccc2c(c1)c1c(n2CCc2ccc(C)nc2)CCN(C)C1 | 126 | 115 | 111 | 130 | 128 | 130 | 141 | 134 | 141 | 153 | 127 | – | – | – | – | – | – | – | – | – | – | – | – | – | – | – | – | – | – | – | – | – | –
14 | CC(C)(O)/C=C\C(=O)[C@](C)(O)[C@H]1[C@H](O)C[C@]2(C)[C@@H]3CC=C4[C@@H](C=C(O)C(=O)C4(C)C)[C@]3(C)C(=O)C[C@@]12C | 96.2 | 115 | 126 | 116 | 111 | 74.7 | 18.8 | 17.3 | 14.5 | 7.22 | 11.9 | 106 | 102 | 95.5 | 122 | 89.2 | 63.4 | 30.2 | 18.8 | 16.1 | 9.22 | 14.5 | 101 | 110 | 108 | 110 | 99.8 | 58.2 | 22.1 | 16 | 18.7 | 9.49 | 12.2
15 | CC(C)Cc1ccc(C(C)C(=O)O)cc1 (stereo not drawn) | 84.6 | 106 | 96.7 | 115 | 95.6 | 102 | 90.6 | 102 | 82 | 91.4 | 89.7 | 79.4 | 93.9 | 94.3 | 87.3 | 97.2 | 83.9 | 97.9 | 86.7 | 83.9 | 86.1 | 89.6 | 85.6 | 83 | 77.8 | 85.4 | 72.7 | 82.2 | 76.5 | 91.6 | 81.9 | 80.5 | 82.1
16 | C#CCN[C@@H]1CCc2ccccc21.CS(=O)(=O)O | 107 | 93.4 | 108 | 109 | 91.7 | 90.3 | 96 | 82.6 | 93.9 | 71.3 | 43.2 | 89.6 | 97 | 92.7 | 87.9 | 94 | 88.1 | 91.1 | 84.2 | 84.2 | 96.5 | 67.2 | 86.1 | 99.9 | 105 | 99.8 | 106 | 101 | 93.7 | 107 | 85.1 | 90.6 | 81.8
17 | O.O.CCN1CCN(C(=O)N[C@H](C(=O)N[C@H]2[C@@H]3SC\C(=C(/N3C2=O)C(O)=O)CSC4=NN=N[N]4C)C5=CC=C(O)C=C5)C(=O)C1=O | 77.3 | 86.9 | 106 | 29.4 | 106 | 98.8 | 110 | 104 | 101 | 89.8 | 115 | 81.4 | 93.8 | 88.5 | 19.5 | 95.2 | 100 | 111 | 109 | 101 | 111 | 113 | 77.5 | 92.9 | 93.5 | 32 | 100 | 96.1 | 100 | 101 | 92.4 | 102 | 107
